According to ChEMBL document CHEMBL6087397, “H2S-releasing oridonin derivatives with improved antitumor activity by inhibiting the PI3K/AKT pathway” (Bioorg Med Chem, 2024):

What was measured:
Assay type in all cases: functional, cell-based
A549 = assay: Antiproliferative activity against human A549 cells assessed as inhibition of cell proliferation incubated for 48 hrs by CCK-8 assay; conditions: A549, 48 h
MCF7 = assay: Antiproliferative activity against human MCF7 cells assessed as inhibition of cell proliferation incubated for 48 hrs by CCK-8 assay; conditions: MCF7, 48 h
MIA PaCa-2 = assay: Antiproliferative activity against human MIA PaCa-2 cells assessed as inhibition of cell proliferation incubated for 48 hrs by CCK-8 assay; conditions: MIA PaCa-2, 48 h
HepG2 = assay: Antiproliferative activity against human HepG2 cells assessed as inhibition of cell proliferation incubated for 48 hrs by CCK-8 assay; conditions: HepG2, 48 h
PANC-1 = assay: Antiproliferative activity against human PANC-1 cells assessed as inhibition of cell proliferation incubated for 48 hrs by CCK-8 assay; conditions: PANC-1, 48 h

SMILES | IC50 (A549) [µM] | IC50 (MCF7) [µM] | IC50 (MIA PaCa-2) [µM] | IC50 (HepG2) [µM] | IC50 (PANC-1) [µM]
C=C1C(=O)[C@]23[C@H](OC(=O)CCCC(=O)OCC#CCOC(=O)c4ccc(N=C=S)cc4)[C@H]1CC[C@H]2[C@@]12CO[C@]3(O)[C@@H](O)[C@@H]1C(C)(C)CC[C@@H]2OC(C)=O | > 40 | 12.8 |  |  | 
C=C1C(=O)[C@]23[C@H](OC(=O)CCCC(=O)OCC#CCOC(=O)c4ccc(N=C=S)cc4)[C@H]1CC[C@H]2[C@@]12CO[C@]3(O)[C@@H](O)[C@@H]1C(C)(C)CC[C@@H]2O | > 40 | > 40 |  |  | 
C=C1C(=O)[C@]23[C@H](OC(=O)CCC(=O)OCCCOC(=O)c4ccc(N=C=S)cc4)[C@H]1CC[C@H]2[C@@]12CO[C@]3(O)[C@@H](O)[C@@H]1C(C)(C)CC[C@@H]2OC(C)=O | 24.9 | 8.45 |  |  | 
C=C1C(=O)[C@]23[C@H](OC(=O)CCCC(=O)OCCCOC(=O)c4ccc(N=C=S)cc4)[C@H]1CC[C@H]2[C@@]12CO[C@]3(O)[C@@H](O)[C@@H]1C(C)(C)CCC2=O | 23.2 | 8.43 |  |  | 
C=C1C(=O)[C@]23[C@H](OC(=O)CCCC(=O)OCCOC(=O)c4ccc(N=C=S)cc4)[C@H]1CC[C@H]2[C@@]12CO[C@]3(O)[C@@H](O)[C@@H]1C(C)(C)CC[C@@H]2OC(C)=O | > 40 | 8.7 |  |  | 
C=C1C(=O)[C@]23[C@H](OC(=O)CCC(=O)OCCCCOC(=O)c4ccc(N=C=S)cc4)[C@H]1CC[C@H]2[C@@]12CO[C@]3(O)[C@@H](O)[C@@H]1C(C)(C)CC[C@@H]2OC(C)=O | > 40 | 11.6 |  |  | 
C=C1C(=O)[C@]23[C@H](OC(=O)CCC(=O)OCC#CCOC(=O)c4ccc(N=C=S)cc4)[C@H]1CC[C@H]2[C@@]12CO[C@]3(O)[C@@H](O)[C@@H]1C(C)(C)CCC2=O | > 40 | 9.93 |  |  | 
C=C1C(=O)[C@]23[C@H](OC(=O)CCC(=O)OCCOC(=O)c4ccc(N=C=S)cc4)[C@H]1CC[C@H]2[C@@]12CO[C@]3(O)[C@@H](O)[C@@H]1C(C)(C)CC[C@@H]2O | > 40 | > 40 |  |  | 
C=C1C(=O)[C@]23[C@H](OC(=O)CCCC(=O)OCCCOC(=O)c4ccc(N=C=S)cc4)[C@H]1CC[C@H]2[C@@]12CO[C@]3(O)[C@@H](O)[C@@H]1C(C)(C)CC[C@@H]2OC(C)=O | > 40 | 6.98 | 14.9 | > 40 | 24.8
C=C1C(=O)[C@]23[C@H](OC(=O)CCC(=O)OCCCOC(=O)c4ccc(N=C=S)cc4)[C@H]1CC[C@H]2[C@@]12CO[C@]3(O)[C@@H](O)[C@@H]1C(C)(C)CC[C@@H]2O | 36.5 | > 40 |  |  | 
C=C1C(=O)[C@]23[C@H](OC(=O)CCCC(=O)OCc4ccc(-c5nc(=O)ss5)cc4)[C@H]1CC[C@H]2[C@@]12CO[C@]3(O)[C@@H](O)[C@@H]1C(C)(C)CC[C@@H]2O | > 40 | > 40 |  |  | 
C=C1C(=O)[C@]23[C@H](OC(=O)c4ccc(N=C=S)cc4)[C@H]1CC[C@H]2[C@@]12CO[C@]3(O)[C@@H](O)[C@@H]1C(C)(C)CCC2=O | 21.2 | 7.08 |  |  | 
C=C1C(=O)[C@]23[C@H](O)[C@H]1CC[C@H]2[C@@]12CO[C@]3(O)[C@@H](O)[C@@H]1C(C)(C)CCC2=O | 6.84 | 13.5 |  |  | 
C=C1C(=O)[C@]23[C@H](OC(=O)CCC(=O)Oc4ccc(-c5nc(=O)ss5)cc4)[C@H]1CC[C@H]2[C@@]12CO[C@]3(O)[C@@H](O)[C@@H]1C(C)(C)CC[C@@H]2OC(C)=O | 15.2 | 15.4 |  |  | 
C=C1C(=O)[C@]23[C@H](OC(=O)CCC(=O)OCCOC(=O)c4ccc(N=C=S)cc4)[C@H]1CC[C@H]2[C@@]12CO[C@]3(O)[C@@H](O)[C@@H]1C(C)(C)CCC2=O | 32.2 | 16.7 |  |  | 
C=C1C(=O)[C@]23[C@H](OC(=O)CCC(=O)OCCOC(=O)c4ccc(N=C=S)cc4)[C@H]1CC[C@H]2[C@@]12CO[C@]3(O)[C@@H](O)[C@@H]1C(C)(C)CC[C@@H]2OC(C)=O | 21.2 | 8.8 |  |  | 
C=C1C(=O)[C@]23[C@H](OC(=O)CCCC(=O)OCC#CCOC(=O)c4ccc(N=C=S)cc4)[C@H]1CC[C@H]2[C@@]12CO[C@]3(O)[C@@H](O)[C@@H]1C(C)(C)CCC2=O | > 40 | 14 |  |  | 
COc1cccc2c1C(=O)c1c(O)c3c(c(O)c1C2=O)C[C@@](O)(C(=O)CO)C[C@@H]3O[C@H]1C[C@H](N)[C@H](O)[C@H](C)O1 [DOXORUBICIN] |  |  | 1.16 |  | 1.19
C=C1C(=O)[C@]23[C@H](OC(=O)CCC(=O)OCCCCOC(=O)c4ccc(N=C=S)cc4)[C@H]1CC[C@H]2[C@@]12CO[C@]3(O)[C@@H](O)[C@@H]1C(C)(C)CCC2=O | 26.6 | 8.08 |  |  | 
C=C1C(=O)[C@]23[C@H](OC(=O)CCCC(=O)OCCCOC(=O)c4ccc(N=C=S)cc4)[C@H]1CC[C@H]2[C@@]12CO[C@]3(O)[C@@H](O)[C@@H]1C(C)(C)CC[C@@H]2O | > 40 | > 40 |  |  | 

SMILES | IC50 (A549) [µM] | IC50 (MCF7) [µM] | IC50 (MIA PaCa-2) [µM] | IC50 (HepG2) [µM] | IC50 (PANC-1) [µM]
C=C1C(=O)[C@]23[C@H](OC(=O)CCC(=O)OCC#CCOC(=O)c4ccc(N=C=S)cc4)[C@H]1CC[C@H]2[C@@]12CO[C@]3(O)[C@@H](O)[C@@H]1C(C)(C)CC[C@@H]2OC(C)=O | > 40 | 4.49 | 28.7 | 7.65 | > 40
C=C1C(=O)[C@]23[C@H](OC(=O)CCC(=O)OCC#CCOC(=O)c4ccc(N=C=S)cc4)[C@H]1CC[C@H]2[C@@]12CO[C@]3(O)[C@@H](O)[C@@H]1C(C)(C)CC[C@@H]2O | > 40 | > 40 |  |  | 
O=c1nc(-c2ccc(O)cc2)ss1 | > 40 | > 40 |  |  | 
C=C1C(=O)[C@]23[C@H](OC(=O)CCCC(=O)OCc4ccc(-c5nc(=O)ss5)cc4)[C@H]1CC[C@H]2[C@@]12CO[C@]3(O)[C@@H](O)[C@@H]1C(C)(C)CC[C@@H]2OC(C)=O | 14.3 | 13 |  |  | 
C=C1C(=O)[C@]23[C@H](OC(=O)c4ccc(N=C=S)cc4)[C@H]1CC[C@H]2[C@@]12CO[C@]3(O)[C@@H](O)[C@@H]1C(C)(C)CC[C@@H]2OC(C)=O | 28.1 | 13 |  |  | 
C=C1C(=O)[C@]23[C@H](OC(=O)CCCC(=O)OCCOC(=O)c4ccc(N=C=S)cc4)[C@H]1CC[C@H]2[C@@]12CO[C@]3(O)[C@@H](O)[C@@H]1C(C)(C)CC[C@@H]2O | > 40 | > 40 |  |  | 
C=C1C(=O)[C@]23[C@H](OC(=O)CCC(=O)Oc4ccc(-c5nc(=O)ss5)cc4)[C@H]1CC[C@H]2[C@@]12CO[C@]3(O)[C@@H](O)[C@@H]1C(C)(C)CCC2=O | 18.3 | 19.1 |  |  | 
C=C1C(=O)[C@]23[C@H](OC(=O)CCC(=O)OCCCCOC(=O)c4ccc(N=C=S)cc4)[C@H]1CC[C@H]2[C@@]12CO[C@]3(O)[C@@H](O)[C@@H]1C(C)(C)CC[C@@H]2O | > 40 | > 40 |  |  | 
C=C1C(=O)[C@]23[C@H](OC(=O)CCCC(=O)OCCOC(=O)c4ccc(N=C=S)cc4)[C@H]1CC[C@H]2[C@@]12CO[C@]3(O)[C@@H](O)[C@@H]1C(C)(C)CCC2=O | 32.4 | 19.2 |  |  | 
O=C(O)c1ccc(N=C=S)cc1 | > 40 | > 40 | > 40 | > 40 | > 40
C=C1C(=O)[C@]23[C@H](OC(=O)CCCC(=O)OCCCCOC(=O)c4ccc(N=C=S)cc4)[C@H]1CC[C@H]2[C@@]12CO[C@]3(O)[C@@H](O)[C@@H]1C(C)(C)CC[C@@H]2O | > 40 | > 40 |  |  | 
C=C1C(=O)[C@]23[C@H](OC(=O)CCCC(=O)OCCCCOC(=O)c4ccc(N=C=S)cc4)[C@H]1CC[C@H]2[C@@]12CO[C@]3(O)[C@@H](O)[C@@H]1C(C)(C)CC[C@@H]2OC(C)=O | > 40 | 9.99 |  |  | 
C=C1C(=O)[C@]23[C@H](O)[C@H]1CC[C@H]2[C@@]12CO[C@@]3(O)[C@@H](O)[C@@H]1C(C)(C)CC[C@@H]2OC(C)=O | 5.47 | 8.76 |  |  | 
C=C1C(=O)[C@]23[C@H](OC(=O)CCC(=O)Oc4ccc(-c5nc(=O)ss5)cc4)[C@H]1CC[C@H]2[C@@]12CO[C@]3(O)[C@@H](O)[C@@H]1C(C)(C)CC[C@@H]2O | 24.2 | > 40 |  |  | 
C=C1C(=O)[C@]23[C@H](OC(=O)CCC(=O)OCCCOC(=O)c4ccc(N=C=S)cc4)[C@H]1CC[C@H]2[C@@]12CO[C@]3(O)[C@@H](O)[C@@H]1C(C)(C)CCC2=O | 16.3 | 10.4 |  |  | 
C=C1C(=O)[C@]23[C@H](OC(=O)CCCC(=O)OCCCCOC(=O)c4ccc(N=C=S)cc4)[C@H]1CC[C@H]2[C@@]12CO[C@]3(O)[C@@H](O)[C@@H]1C(C)(C)CCC2=O | 24.4 | 6.93 | 11 | 8.69 | 18.8
O=c1[nH]cc(F)c(=O)[nH]1 [FLUOROURACIL] | 11.9 | 25.1 |  |  | 
C=C1C(=O)[C@]23[C@H](O)[C@H]1CC[C@H]2[C@@]12CO[C@]3(O)[C@@H](O)[C@@H]1C(C)(C)CC[C@@H]2O [ORIDONIN] | 14.9 | 16 | 5.97 | 28.1 | 19.1
C=C1C(=O)[C@]23[C@H](OC(=O)CCCC(=O)OCc4ccc(-c5nc(=O)ss5)cc4)[C@H]1CC[C@H]2[C@@]12CO[C@]3(O)[C@@H](O)[C@@H]1C(C)(C)CCC2=O | 28.5 | > 40 |  |  | 
